Source: paper PMC8457056, “Remodeling of the Fibrillation Pathway of α‐Synuclein by Interaction with Antimicrobial Peptide LL‐III” (Chemistry (Weinheim an Der Bergstrasse, Germany), 2021)

Experiments:
α‐Syn = assay: fraction of complexed α-Syn calculated from Kb; format: binding, human; details: 100 μM α-Syn, calculated from K b
Method: From the magnitude of K b, the fraction of complexed α‐Syn in the microscopy experiments could be calculated (Figure S5). For 100 μM α‐Syn, the fraction of complexed α‐Syn, θ, in the presence of 50 μM LL‐III amounts to about 0.3. […] This is likely due to the ability of the peptide to interact with one or two α‐Syn molecules within the droplets. The interaction is expected to occur mainly via the interaction of the positively charged (+6) and hydrophobic groups of LL‐III with the negatively charged C‐terminus (−12) and hydrophobic NAC region of α‐Syn, respectively. […] In the presence of 200 μM and 500 μM LL‐III, the θ‐values are 0.70 and 0.90, respectively.
Figure S4. Binding isotherm obtained by means of Trp steady-state fluorescence anisotropy. The experiment was performed by titrating a 5 µM solution of LL-III with a solution of α-Syn in the range 0-50 µM. The red line represents the best fit according to a 1:1 binding model. The experiments were performed in 20 mM sodium acetate buffer, pH 5.0, at 25 °C.
Figure S5. Plot of the fraction of bound α -Syn as a function of the total peptide concentration. The fraction of bound α -Syn was calculated according to the concentration used in the phase- contrast light microscopy experiments reported in Figu re 1 B of the main text: 100 µ M α-Syn and 50 µM (grey circle), 200 µM (red circle) and 500 µ M (blue circle) of LL-III. […]

[1] = circular dichroism spectroscopy of LL-III; format: physicochemical; details: 300 μM LL-III; 20 mM sodium acetate, pH 5.0, 25 °C; minimum around 195 nm
Method: Figure 2 A) Binding isotherm obtained by means of steady‐state fluorescence anisotropy measurements. The experiment was performed by titrating a 4 μM solution of carboxyfluorescein‐labeled LL‐III with a solution of α‐Syn in the range 0–100 μM. The red line represents the best fit according to a 1 : 1 binding model.[29] The fluorophore was covalently attached to the N‐terminus of the peptide. B) Circular dichroism (CD) spectra of LL‐III (black solid line), α‐Syn (red solid line,) and of a mixture of LL‐III and α‐Syn (blue solid line) recorded at day 0. Shown are also spectra of the LL‐III/α‐Syn mixture recorded after 5 days (dashed blue line) and after 10 days (dotted blue lines). Here, the concentration of LL‐III was 300 μM, and the concentration of α‐Syn was 30 μM. […]
Next, by means of circular dichroism (CD) spectroscopy, we explored the effect of LLPS formation and LL‐III partitioning on the conformation of the protein. […] In support of this conclusion, we note that the spectrum of the mixture is superimposable with the sum of the spectra of LL‐III and α‐Syn, which were recorded separately (Figure S6). The time evolution of the CD spectrum of the LL‐III/α‐Syn mixture was also recorded after 5 and 10 days (Figure 2B). […]
µM) and following the anisotropy changes of the Trp residue. […] The anisotropy was evaluated at 354 nm which corresponds to the maximum of emission of the free peptide. […]

net charge of LL-III = format: physicochemical
[2] = ref [28]; cited from earlier work
Excerpt: (§1) Antimicrobial peptides (AMPs) are a particular class of disordered proteins. They form an important part of the immune system of all living organisms and are considered as the first line of defense against infections caused by pathogens.[25, 26, 27] […] The LL‐III is a posi ...

cancer cells = details: cited from earlier work
Excerpt: as §1

[3] = tested on: several bacterial strains, fungi; details: ref [28]; cited from earlier work
Excerpt: as §1

NH2-VNWKKIL GKIIKVVK -CONH2 [LL‐III]
fraction of complexed α‐Syn, θ (α‐Syn; 50 μM LL-III): about 0.3
fraction of complexed α‐Syn, θ (α‐Syn; 200 μM LL-III): 0.70
fraction of complexed α‐Syn, θ (α‐Syn; 500 μM LL-III): 0.90
conformation (CD) [1]: random‐coiled conformation in solution
net charge at pH 5.0 (net charge of LL-III; also at the lower pH of pH 5.0): +6
net charge at pH 7.4 (net charge of LL-III; pH 7.4): +6
cytotoxicity [2]: moderate cytotoxicity
cellular localization (cancer cells; ref [22]): localizing mainly in the nucleolus and in granules
translocation across plasma membrane (cancer cells; ref [22]): able to translocate across the plasma membrane of cancer cells
activity against cancer cells (cancer cells; ref [28]): remarkable activity
activity against several bacterial strains, fungi [3]: remarkable activity
